Data on eight compounds can be found in ChEMBL document CHEMBL3217489, “Minisci reactions: Versatile CH-functionalizations for medicinal chemists” (Medchemcomm, 2011).

Structures are written as SMILES.

In general, Ki refers to the dissociation constant of the complex between target and ligand, obtained from inhibition or displacement. One may read the IC50 as the point on the concentration scale where inhibition reaches its midpoint.

For one assay, the target named is T1, Adenosine deaminase (Bos taurus, UniProt P56658).
T1 sequence (P56658 whole entry): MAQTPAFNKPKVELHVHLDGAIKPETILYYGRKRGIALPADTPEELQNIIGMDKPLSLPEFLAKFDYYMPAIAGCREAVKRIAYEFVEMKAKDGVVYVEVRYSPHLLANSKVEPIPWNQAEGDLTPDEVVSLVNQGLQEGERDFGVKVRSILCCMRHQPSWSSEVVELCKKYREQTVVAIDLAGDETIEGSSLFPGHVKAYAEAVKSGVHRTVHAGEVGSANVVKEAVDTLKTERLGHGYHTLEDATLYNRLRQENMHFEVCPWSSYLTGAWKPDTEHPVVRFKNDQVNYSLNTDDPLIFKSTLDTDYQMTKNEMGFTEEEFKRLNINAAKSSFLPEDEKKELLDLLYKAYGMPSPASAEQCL
The assay can be described thus: Inhibition of calf duodenum adenosine deaminase.

Assay [1] deals with Neuronal acetylcholine receptor; alpha4/beta2 (Homo sapiens, UniProt P17787+P43681). The assay can be described thus: Inhibition of alpha4beta2 nAChR (unknown origin). The format is protein-complex assay.
Neuronal acetylcholine receptor; alpha4/beta2, sequence (P17787 whole entry): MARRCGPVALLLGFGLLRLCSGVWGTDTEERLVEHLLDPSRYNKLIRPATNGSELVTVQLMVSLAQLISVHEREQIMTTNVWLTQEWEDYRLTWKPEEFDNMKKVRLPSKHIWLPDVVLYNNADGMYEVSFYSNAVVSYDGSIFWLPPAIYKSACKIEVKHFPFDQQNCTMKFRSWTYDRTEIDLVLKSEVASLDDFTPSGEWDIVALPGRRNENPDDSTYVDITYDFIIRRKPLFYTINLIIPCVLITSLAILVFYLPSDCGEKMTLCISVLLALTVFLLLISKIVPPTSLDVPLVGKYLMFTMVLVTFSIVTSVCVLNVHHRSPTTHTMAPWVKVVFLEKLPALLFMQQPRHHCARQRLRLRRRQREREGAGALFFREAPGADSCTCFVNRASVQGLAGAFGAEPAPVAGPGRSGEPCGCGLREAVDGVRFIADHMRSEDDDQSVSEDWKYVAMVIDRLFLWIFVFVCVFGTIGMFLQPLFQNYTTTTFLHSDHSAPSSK
Neuronal acetylcholine receptor; alpha4/beta2, sequence (P43681 whole entry): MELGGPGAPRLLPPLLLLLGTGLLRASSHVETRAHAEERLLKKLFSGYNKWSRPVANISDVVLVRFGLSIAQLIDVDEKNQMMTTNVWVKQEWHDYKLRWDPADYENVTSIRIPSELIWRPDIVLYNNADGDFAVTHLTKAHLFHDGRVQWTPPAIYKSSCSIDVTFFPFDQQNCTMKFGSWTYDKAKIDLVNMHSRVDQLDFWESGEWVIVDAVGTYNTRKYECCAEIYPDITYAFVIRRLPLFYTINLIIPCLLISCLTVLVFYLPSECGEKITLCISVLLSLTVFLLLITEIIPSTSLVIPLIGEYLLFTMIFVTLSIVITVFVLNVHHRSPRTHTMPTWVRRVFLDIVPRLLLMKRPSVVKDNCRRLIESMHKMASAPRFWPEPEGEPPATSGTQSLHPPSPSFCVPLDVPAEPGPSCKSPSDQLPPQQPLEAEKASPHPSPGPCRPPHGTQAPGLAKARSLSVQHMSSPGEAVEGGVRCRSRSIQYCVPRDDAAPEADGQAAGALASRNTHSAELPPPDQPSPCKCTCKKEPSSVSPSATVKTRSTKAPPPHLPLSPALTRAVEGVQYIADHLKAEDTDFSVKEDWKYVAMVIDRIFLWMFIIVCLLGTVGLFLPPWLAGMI
Assay [2] has as its target T2, Steroid 17-alpha-hydroxylase/17,20 lyase (Homo sapiens, UniProt P05093).
T2 sequence (P05093 whole entry): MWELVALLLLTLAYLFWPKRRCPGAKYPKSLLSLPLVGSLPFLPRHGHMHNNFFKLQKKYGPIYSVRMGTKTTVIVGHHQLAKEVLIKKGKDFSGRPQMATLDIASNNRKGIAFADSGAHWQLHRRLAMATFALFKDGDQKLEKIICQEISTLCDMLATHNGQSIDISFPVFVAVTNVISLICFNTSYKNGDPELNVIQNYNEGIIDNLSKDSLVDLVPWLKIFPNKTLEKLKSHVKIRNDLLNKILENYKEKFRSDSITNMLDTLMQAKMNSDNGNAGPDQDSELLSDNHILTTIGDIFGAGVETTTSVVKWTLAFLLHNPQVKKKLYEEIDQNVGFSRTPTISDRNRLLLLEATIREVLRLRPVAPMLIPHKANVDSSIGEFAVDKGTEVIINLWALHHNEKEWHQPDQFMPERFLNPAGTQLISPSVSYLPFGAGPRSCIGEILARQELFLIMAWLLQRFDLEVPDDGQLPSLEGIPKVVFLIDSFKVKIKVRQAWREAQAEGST
Briefly: Irreversible inhibition of human cytochrome P450 17alpha.

Assay [3] has as its target T2, Steroid 17-alpha-hydroxylase/17,20 lyase. Briefly: Reversible inhibition of human cytochrome P450 17alpha.

`OC[C@H]1O[C@@H](n2cnc3cncnc32)[C@H](O)[C@@H]1O` [NEBULARINE] registered a Ki on Adenosine deaminase of 9300 nM.

`Clc1cc2c(cn1)C1CNCC(C2)C1` (racemic) displayed a Ki in assay [1] of 0.5 nM.

At Adenosine deaminase, `OCC1NC=Nc2c1ncn2[C@@H]1O[C@H](CO)[C@@H](O)[C@H]1O` (single isomer, unassigned; diastereomer 1) gave an inhibitory constant (Ki) of 760 nM.

In the case of `OCC1NC=Nc2c1ncn2[C@@H]1O[C@H](CO)[C@@H](O)[C@H]1O` (single isomer, unassigned; diastereomer 2), affinity on Adenosine deaminase was put at a Ki of 12500 nM.

On to `C[C@]12CC[C@H](O)CC1=CC[C@@H]1[C@@H]2CC[C@]2(C)C(c3cccnc3)=CC[C@@H]12` [ABIRATERONE], for which the concentration for half-maximal inhibition (IC50) in assay [2] was determined as 5 nM.

`OCc1ncnc2c1ncn2[C@@H]1O[C@H](CO)[C@@H](O)[C@H]1O` registered a Ki on Adenosine deaminase of 9400 nM.

`C[C@]12CC[C@H]3[C@@H](CC=C4C[C@@H](O)CC[C@@]43C)[C@@H]1CC[C@H]2c1ccncc1` came in with an IC50 in assay [3] of 27 nM.

Compound `Clc1ccc2c(n1)CC1CNCC2C1` (racemic) displayed a Ki in assay [1] of 3.5 nM.
